The values below are quoted from earlier work in patent publication US20070092539A1 (priority 2003, published 2007).

For one series, the system named is rates with arthritis. The conditions noted are these: experimental models on rates with arthritis, compared with other AINEs.

Regarding `Cc1cnc(NC(=O)C2=C(O)c3ccccc3S(=O)(=O)N2C)s1` [meloxicam, 4-hydroxy-2-methyl-N-(5-methyl-2-thiazolyl)-2H-1,2-benzotiazine-3-carboxamide-1,1-dioxide], the “therapeutic margin (ulcerogenic vs anti-inflammatory doses)” value in the series on rates with arthritis was “superior therapeutic margin over the other AINEs”. For the same compound, the solubility in methanol result (methanol) is listed as “slightly soluble in methanol”. Besides, under “water”, the solubility in water entry is on record as “practically insoluble in water”.
